Earlier results on seven compounds are cited in patent US20220023306A1, “USE OF A PPAR-DELTA AGONIST IN THE TREATMENT OF FATTY ACID OXIDATION DISORDERS (FAOD)” (Reneo Pharmaceuticals, Inc., priority 2019, published 2022).

Where two headings read alike, the source gives them in different places.

One series relates to CPT2-deficient myoblasts. The conditions noted are these: cited from earlier work; for FAO: CPT2-deficient myoblasts.
The test system of series [1] is fibroblasts derived from patients with VLCAD, LCHAD and TFP deficiencies. The conditions noted are these: cited from earlier work.
In the next series the test system is VLCAD. Particulars: VLCAD deficient cell line FB833; cited from earlier work.
The test system of a further series is control myoblasts. Particulars: cited from earlier work.
Another series deals with CPT2. The conditions noted are these: cultured patient fibroblasts carrying mild mutations of the CPT2 gene; cited from earlier work.

In the case of `CC(C)(Sc1ccc(CCN(CCCCC2CCCCC2)C(=O)NC2CCCCC2)cc1)C(=O)O` [GW 7647], the FAO entry in the series on CPT2-deficient myoblasts is “no effect”.

With `Cc1cnc(-c2ccc(C(F)(F)F)cc2)n1Cc1ccccc1OCCC[C@@H](C)CC(=O)O` [MA-0211], the fatty acid oxidation entry in series [1] (fibroblasts from patients with LCHAD deficiency), in series [1] (fibroblasts from patients with TFP deficiency) and in series [1] (fibroblasts from patients with VLCAD deficiency) was “improvements” in each case.

With `CCCc1c(OCCCOc2ccc(OCC(=O)O)cc2)ccc(C(C)=O)c1O` [L-165,0411, [4-[3-(4-Acetyl-3-hydroxy-2-propylphenoxy)propoxy]phenoxy]acetic acid], the VLCAD enzyme activity entry in the series on VLCAD is reported as “increase”.

With `Cc1cc(SCc2sc(-c3ccc(C(F)(F)F)cc3)nc2C)ccc1OCC(=O)O` [GW501516, 2-[2-Methyl-4-[[[4-methyl-2-[4-(trifluoromethyl)phenyl]-5-thiazolyl]methyl]thio]phenoxy]acetic acid], in the series with VLCAD, the VLCAD enzyme activity result was “increase”.

Turning to `Cc1cc(SCc2sc(-c3ccc(C(F)(F)F)c(F)c3)nc2C)ccc1OCC(=O)O` [GW 072], the FAO result is given as “stimulated” in the series on control myoblasts and “restore” with CPT2-deficient myoblasts. In addition, in the series with CPT2-deficient myoblasts (CPT2-deficient cells), the long-chain acylcarnitine production result is listed as “normalized”. Also, in the series on CPT2-deficient myoblasts (CPT2-deficient cells), the “residual CPT2 activity” value is recorded as “increased”.

On to `Cc1cc(SCc2sc(-c3ccc(C(F)(F)F)c(F)c3)nc2C)ccc1OCC(=O)O` [GW0742, [4-[[[2-[3-Fluoro-4-(trifluoromethyl)phenyl]-4-methyl-5-thiazolyl]methyl]thio]-2-methylphenoxy]acetic acid], for which, in the series on VLCAD, the VLCAD enzyme activity result is listed as “increase”.

As to `CC(C)(Oc1ccc(CCNC(=O)c2ccc(Cl)cc2)cc1)C(=O)O` [bezafibrate, 2-(4-{2-[(4-Chlorobenzoyl)amino]ethyl}phenoxy)-2-methylpropanoic acid], the “enhancement of deficient enzyme (CPT2)” value in the series with CPT2 is “enhancement”. Besides, the FAO entry in the series on CPT2-deficient myoblasts is on record as “restore”.
